Data published in ChEMBL document CHEMBL1201862, “PubChem BioAssay data set” (2004).
Active and inactive are the calls of the source.

Tests used:
[1] = Shn3 3'UTR reporter inhibitors, dose response, cell-based, Clone20 osteoblasts, firefly luciferase, cherry-picked (AID 624132); format: functional;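 further: firefly luciferase luminescence from reporter carrying the Shn3 3'UTR in osteoblasts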
Cytochrome P450 3A4 = Cytochrome P450 3A4 (Homo sapiens, UniProt P08684);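 further: CYP3A4 tested as one member of a cytochrome P450 panel screen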
Fatty acid synthase [2] = target: T1, Fatty acid synthase (Homo sapiens, UniProt P49327); assay: FAS thioesterase domain inhibitors, dose response, biochemical, endpoint fluorescence intensity, uHTS hits (AID 624327); format: functional;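 further: fluorescence from hydrolysis of an O-methyl fluorescein acyl ester substrate by the enzyme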
Protein RecA = target: T2, Protein RecA (Mycobacterium tuberculosis, UniProt P9WHJ3); assay: Fluorescence Cell-Free Homogeneous Dose Retest to Identify Inhibitors of RecA-Intein Splicing Activity. [Related pubchem assays (depositor defined):AID2097, AID2223, AID489010, AID492950]; format: functional
T2 sequence (P9WHJ3 whole entry): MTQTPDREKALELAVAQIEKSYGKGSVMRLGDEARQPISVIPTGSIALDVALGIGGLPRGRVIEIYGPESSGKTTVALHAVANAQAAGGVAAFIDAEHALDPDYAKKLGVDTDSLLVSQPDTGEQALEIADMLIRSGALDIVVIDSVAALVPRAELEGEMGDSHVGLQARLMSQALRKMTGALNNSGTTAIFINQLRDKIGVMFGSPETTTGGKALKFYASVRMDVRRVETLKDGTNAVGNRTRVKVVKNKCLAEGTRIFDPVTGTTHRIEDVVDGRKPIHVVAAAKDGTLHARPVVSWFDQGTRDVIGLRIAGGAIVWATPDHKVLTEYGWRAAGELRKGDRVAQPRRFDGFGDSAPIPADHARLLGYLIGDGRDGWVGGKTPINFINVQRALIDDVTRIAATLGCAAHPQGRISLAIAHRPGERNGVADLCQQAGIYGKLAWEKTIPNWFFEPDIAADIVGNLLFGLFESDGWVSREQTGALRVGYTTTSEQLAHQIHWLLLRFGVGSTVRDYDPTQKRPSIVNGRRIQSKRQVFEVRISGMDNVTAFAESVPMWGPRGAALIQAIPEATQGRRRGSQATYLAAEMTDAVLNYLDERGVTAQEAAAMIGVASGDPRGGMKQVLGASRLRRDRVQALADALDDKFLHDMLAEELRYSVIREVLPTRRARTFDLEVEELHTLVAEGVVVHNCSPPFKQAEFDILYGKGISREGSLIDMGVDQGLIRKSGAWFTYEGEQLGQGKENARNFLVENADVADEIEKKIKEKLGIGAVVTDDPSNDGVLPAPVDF

[3] = THP-1 cell cytotoxicity, dose response, cytotoxicity control for Vif-APOBEC3G degradation inhibitor project, THP-1 cells (AID 1117359); format: functional; settings: Human immunodeficiency virus 1, THP-1
Beta Lactamase = Beta Lactamase (Pseudomonas aeruginosa, UniProt Q932Y6); assay: beta-lactamase reporter inhibitor potency, dose response, artefact control for TLR9-MyD88 binding inhibitor project, BLA reporter cells, FRET fluorescence (AID 588341); format: cell-based;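 further: cell based assay in CHO-K1 cells stably expressing beta-lactamase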
BJ [4] = assay: cytotoxicity toward BJ-TERT fibroblasts, dose response, cell-based, RAS-independent, luminescence (AID 1933); format: functional; settings: Homo sapiens
Beta-galactosidase = Beta-galactosidase (Escherichia coli, UniProt Q8VNN2); assay: PubChem AID 485352; format: functional
[5] = target: Glucose-6-phosphate 1-dehydrogenase (Homo sapiens, UniProt P11413); assay: human G6PD enzyme inhibitors, dose response, selectivity assay for P. falciparum G6PD inhibitor project, biochemical, fluorescence (AID 504792); format: functional
[6] = target: T3, Sentrin-specific protease 8 (Homo sapiens, UniProt Q96LD8); format: functional
T3 sequence (Q96LD8 whole entry): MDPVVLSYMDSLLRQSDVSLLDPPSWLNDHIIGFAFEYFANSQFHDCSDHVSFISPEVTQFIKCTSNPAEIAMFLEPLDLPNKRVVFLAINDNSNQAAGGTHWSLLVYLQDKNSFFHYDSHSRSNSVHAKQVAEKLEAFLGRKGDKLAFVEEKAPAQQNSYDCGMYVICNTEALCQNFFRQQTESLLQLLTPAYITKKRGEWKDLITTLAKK

[7] = target: T4, Replicative DNA helicase DnaB (Mycobacterium tuberculosis, UniProt P9WMR3); assay: DnaB intein splicing inhibitors, dose response, biochemical, cell-free fluorescence (AID 449749); format: functional
T4 sequence (P9WMR3 whole entry): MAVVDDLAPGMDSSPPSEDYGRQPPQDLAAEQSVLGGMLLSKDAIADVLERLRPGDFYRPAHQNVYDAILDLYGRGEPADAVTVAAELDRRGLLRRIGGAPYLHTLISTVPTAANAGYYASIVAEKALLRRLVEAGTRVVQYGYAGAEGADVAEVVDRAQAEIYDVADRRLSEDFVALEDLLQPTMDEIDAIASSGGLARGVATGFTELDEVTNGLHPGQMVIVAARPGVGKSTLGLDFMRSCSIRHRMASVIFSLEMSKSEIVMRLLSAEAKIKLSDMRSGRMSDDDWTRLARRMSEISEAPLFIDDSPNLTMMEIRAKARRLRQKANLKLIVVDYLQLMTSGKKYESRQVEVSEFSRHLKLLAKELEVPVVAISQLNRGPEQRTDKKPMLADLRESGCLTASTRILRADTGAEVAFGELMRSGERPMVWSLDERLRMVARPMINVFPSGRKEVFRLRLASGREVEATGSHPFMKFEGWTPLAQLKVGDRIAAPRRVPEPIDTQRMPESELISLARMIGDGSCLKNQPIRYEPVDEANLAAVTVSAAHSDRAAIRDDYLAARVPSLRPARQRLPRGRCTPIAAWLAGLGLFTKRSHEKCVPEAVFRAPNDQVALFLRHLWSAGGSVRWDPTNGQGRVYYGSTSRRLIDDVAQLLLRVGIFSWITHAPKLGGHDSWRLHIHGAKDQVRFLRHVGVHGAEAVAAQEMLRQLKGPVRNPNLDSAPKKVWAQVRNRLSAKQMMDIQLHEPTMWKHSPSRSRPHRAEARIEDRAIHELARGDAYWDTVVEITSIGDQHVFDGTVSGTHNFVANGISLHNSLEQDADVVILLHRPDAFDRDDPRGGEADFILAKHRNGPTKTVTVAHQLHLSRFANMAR

Cytochrome P450 2D6 = Cytochrome P450 2D6 (Homo sapiens, UniProt P10635);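 further: CYP2D6 member of a cytochrome P450 panel assay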
BJ [8] = assay: cells; format: functional, cell-based; settings: Homo sapiens
[9] = target: T3, Sentrin-specific protease 8; format: functional; remark: listed apart in the source
[10] = HepG2 cell cytotoxicity, dose response, cytotoxicity control for Shn3 inhibitor project, CellTiter-Glo, cherry-picked (AID 624134); format: functional, cell-based
[11] = target: T5, Type-1 angiotensin II receptor (Homo sapiens, UniProt P30556); assay: AT1 receptor antagonists, dose response, selectivity assay for APJ receptor antagonist project, cell-based, uHTS hits (AID 463214); format: functional;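 further: antagonist potency against angiotensin II stimulated AT1 response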
T5 sequence (P30556 whole entry): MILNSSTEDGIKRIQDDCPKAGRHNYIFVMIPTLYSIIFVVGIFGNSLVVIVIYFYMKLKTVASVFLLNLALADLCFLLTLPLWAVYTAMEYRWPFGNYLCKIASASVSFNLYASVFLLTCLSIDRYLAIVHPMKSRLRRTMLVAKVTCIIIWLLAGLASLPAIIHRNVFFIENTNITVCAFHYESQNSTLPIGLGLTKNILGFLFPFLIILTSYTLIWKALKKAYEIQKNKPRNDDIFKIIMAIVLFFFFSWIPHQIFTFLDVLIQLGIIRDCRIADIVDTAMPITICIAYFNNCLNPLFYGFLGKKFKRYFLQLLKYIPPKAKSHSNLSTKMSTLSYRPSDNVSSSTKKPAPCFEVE

[12] = control 3'UTR Renilla luciferase suppression, dose response, counter-screen for Shn3 inhibitor project, cell-based, Clone20-Shn3RL, cherry-picked (AID 624133); format: functional
[13] = cytotoxicity toward DRD oncogenic fibroblasts, dose response, cell-based, non-viral oncogenic, luminescence (AID 1934); format: functional; settings: Homo sapiens
[14] = Luminescence Cell-Based Dose Retest to Confirm Inhibitors of Cancer Stem Cells. [Related pubchem assays (depositor defined):AID2717, AID2721]; format: functional; settings: Homo sapiens
BJ [15] = assay: cytotoxicity toward BJ-TERT-LT-ST fibroblasts, dose response, cell-based, RAS-independent, luminescence (AID 1935); format: functional; settings: Homo sapiens;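 further: BJ fibroblasts immortalized with TERT plus LT and ST oncogenes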
Fatty acid synthase [16] = target: T1, Fatty acid synthase; assay: FAS thioesterase domain inhibitors, dose response, biochemical, kinetic fluorescence intensity (AID 624326); format: functional;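 further: rate of fluorescence rise from hydrolysis of a fluorogenic O-methyl fluorescein ester substrate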
CHO = assay: cytotoxicity in TLR9-MyD88 CHO cells, dose response, cytotoxicity control for TLR9-MyD88 binding inhibitor project, cell-based, luminescence (AID 588339); format: functional, hamster; settings: Cricetulus griseus;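 further: CHO cells stably coexpressing TLR9 and MyD88 fusions from primary screen; compound exposure lasted 48 hours before viability readout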
HEK293 [17] = assay: cells; format: functional, cell-based; settings: Homo sapiens
[18] = target: Dual specificity tyrosine-phosphorylation-regulated kinase 1A (Rattus norvegicus, UniProt Q63470); format: biochemical, Homo sapiens
HEK293 [19] = assay: cells; format: functional, cell-based; settings: Homo sapiens; remark: listed apart in the source
HEK293 [20] = assay: NOD1 signaling inhibitors, primary screen, cell-based, luminescence, uHTS (AID 1578); format: functional; settings: Homo sapiens
[21] = target: Nucleotide-binding oligomerization domain-containing protein 2 (Homo sapiens, UniProt Q9HC29); assay: NOD2 signaling inhibitors, cell-based, luminescence, uHTS, HEK293 (AID 1566); format: functional
HEK293 [22] = assay: cells; format: functional, cell-based; settings: Homo sapiens; remark: listed apart in the source
HEK293 [23] = assay: NOD2 signaling inhibitors in MDP-stimulated cells, cell-based, uHTS, luminescence (AID 2001); format: functional; settings: Homo sapiens
[24] = target: T6, Heat shock factor protein 1 (Mus musculus, UniProt P38532); assay: HSF1 potentiators in luciferase reporter cells, confirmation, cell-based, NIH3T3, luminescence, dose retest (AID 435004); format: functional;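 further: stress induced by proteasome inhibitor MG132 added 30 min after compound; luciferase reporter driven by HSF1 response element in NIH3T3 cells; actives raise luminescence as potentiators of the MG132 stress response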
T6 sequence (P38532 whole entry): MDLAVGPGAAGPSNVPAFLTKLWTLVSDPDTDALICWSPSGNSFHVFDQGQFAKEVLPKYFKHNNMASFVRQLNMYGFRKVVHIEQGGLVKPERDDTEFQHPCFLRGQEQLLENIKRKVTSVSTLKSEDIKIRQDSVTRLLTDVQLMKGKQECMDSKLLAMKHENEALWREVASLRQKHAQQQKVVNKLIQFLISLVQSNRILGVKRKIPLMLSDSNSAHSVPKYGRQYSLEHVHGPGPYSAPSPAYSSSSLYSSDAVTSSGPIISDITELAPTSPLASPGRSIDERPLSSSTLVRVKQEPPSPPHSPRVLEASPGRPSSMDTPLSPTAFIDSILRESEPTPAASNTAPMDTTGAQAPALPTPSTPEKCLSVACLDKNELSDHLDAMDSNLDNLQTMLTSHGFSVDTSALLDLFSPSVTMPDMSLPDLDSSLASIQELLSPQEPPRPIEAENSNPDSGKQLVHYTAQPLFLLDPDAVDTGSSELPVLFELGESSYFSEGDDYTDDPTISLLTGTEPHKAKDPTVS

T1 sequence (P49327 whole entry, the tested form may be a part): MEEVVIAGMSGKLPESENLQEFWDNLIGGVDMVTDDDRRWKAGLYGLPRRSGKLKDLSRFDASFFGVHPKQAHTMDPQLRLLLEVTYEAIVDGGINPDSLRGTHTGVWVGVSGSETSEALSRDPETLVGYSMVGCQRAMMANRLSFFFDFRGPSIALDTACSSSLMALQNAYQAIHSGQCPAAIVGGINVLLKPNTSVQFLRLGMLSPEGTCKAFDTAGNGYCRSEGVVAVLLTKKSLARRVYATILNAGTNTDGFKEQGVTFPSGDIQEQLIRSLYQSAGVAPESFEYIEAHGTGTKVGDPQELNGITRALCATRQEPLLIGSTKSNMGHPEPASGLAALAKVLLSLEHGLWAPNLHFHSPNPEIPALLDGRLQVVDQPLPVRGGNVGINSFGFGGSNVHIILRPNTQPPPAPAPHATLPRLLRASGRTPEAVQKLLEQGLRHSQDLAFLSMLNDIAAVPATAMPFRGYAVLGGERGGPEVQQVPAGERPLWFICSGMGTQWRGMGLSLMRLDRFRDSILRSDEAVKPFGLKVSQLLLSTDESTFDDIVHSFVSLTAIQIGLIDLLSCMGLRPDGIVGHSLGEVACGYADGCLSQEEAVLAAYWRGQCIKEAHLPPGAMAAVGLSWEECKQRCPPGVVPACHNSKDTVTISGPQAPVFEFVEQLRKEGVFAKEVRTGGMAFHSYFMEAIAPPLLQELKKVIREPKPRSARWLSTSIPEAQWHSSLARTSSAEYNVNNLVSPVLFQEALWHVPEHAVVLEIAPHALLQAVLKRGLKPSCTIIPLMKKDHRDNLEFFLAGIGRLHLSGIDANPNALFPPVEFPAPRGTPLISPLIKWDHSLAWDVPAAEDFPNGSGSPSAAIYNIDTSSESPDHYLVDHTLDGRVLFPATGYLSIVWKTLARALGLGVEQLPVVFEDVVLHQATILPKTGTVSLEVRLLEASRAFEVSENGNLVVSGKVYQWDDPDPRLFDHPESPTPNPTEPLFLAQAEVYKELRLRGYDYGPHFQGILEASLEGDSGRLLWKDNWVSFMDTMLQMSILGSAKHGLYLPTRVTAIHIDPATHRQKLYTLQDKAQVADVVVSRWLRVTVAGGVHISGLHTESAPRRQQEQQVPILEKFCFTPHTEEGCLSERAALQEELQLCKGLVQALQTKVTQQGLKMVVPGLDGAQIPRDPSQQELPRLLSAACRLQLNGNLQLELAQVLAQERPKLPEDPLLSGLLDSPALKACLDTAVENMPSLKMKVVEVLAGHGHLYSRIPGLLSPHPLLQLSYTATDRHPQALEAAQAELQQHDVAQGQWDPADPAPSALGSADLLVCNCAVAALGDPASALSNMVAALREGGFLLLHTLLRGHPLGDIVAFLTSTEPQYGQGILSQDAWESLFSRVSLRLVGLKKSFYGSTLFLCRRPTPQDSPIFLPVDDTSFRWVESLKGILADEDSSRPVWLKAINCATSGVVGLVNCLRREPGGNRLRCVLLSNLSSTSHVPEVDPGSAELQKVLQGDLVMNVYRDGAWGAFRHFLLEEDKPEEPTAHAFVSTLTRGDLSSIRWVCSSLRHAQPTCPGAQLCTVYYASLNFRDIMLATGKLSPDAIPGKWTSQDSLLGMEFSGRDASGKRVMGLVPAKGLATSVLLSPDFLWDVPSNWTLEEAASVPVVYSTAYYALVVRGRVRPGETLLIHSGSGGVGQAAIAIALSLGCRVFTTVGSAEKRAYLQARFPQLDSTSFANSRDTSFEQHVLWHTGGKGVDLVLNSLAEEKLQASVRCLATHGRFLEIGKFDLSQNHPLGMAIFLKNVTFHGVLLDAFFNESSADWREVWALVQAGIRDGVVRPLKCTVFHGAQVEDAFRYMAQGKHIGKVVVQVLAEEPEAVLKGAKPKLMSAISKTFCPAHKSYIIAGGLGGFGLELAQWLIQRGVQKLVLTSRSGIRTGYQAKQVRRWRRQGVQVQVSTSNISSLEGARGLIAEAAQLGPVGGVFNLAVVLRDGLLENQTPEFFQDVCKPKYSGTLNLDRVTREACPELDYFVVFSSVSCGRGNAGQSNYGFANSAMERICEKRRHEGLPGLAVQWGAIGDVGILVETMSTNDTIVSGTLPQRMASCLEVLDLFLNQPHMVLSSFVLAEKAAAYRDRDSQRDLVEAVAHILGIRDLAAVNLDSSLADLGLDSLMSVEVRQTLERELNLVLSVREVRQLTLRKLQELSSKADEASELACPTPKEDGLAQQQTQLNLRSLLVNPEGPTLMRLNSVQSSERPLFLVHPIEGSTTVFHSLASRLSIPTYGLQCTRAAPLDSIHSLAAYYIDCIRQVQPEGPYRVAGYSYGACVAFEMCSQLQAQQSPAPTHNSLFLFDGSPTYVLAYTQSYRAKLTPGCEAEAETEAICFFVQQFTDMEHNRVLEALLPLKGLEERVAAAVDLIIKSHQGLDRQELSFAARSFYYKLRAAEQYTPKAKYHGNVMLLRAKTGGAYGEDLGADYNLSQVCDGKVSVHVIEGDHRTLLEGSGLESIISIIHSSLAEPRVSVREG
Sequence of Nucleotide-binding oligomerization domain-containing protein 2 (Q9HC29 whole entry, the tested form may be a part): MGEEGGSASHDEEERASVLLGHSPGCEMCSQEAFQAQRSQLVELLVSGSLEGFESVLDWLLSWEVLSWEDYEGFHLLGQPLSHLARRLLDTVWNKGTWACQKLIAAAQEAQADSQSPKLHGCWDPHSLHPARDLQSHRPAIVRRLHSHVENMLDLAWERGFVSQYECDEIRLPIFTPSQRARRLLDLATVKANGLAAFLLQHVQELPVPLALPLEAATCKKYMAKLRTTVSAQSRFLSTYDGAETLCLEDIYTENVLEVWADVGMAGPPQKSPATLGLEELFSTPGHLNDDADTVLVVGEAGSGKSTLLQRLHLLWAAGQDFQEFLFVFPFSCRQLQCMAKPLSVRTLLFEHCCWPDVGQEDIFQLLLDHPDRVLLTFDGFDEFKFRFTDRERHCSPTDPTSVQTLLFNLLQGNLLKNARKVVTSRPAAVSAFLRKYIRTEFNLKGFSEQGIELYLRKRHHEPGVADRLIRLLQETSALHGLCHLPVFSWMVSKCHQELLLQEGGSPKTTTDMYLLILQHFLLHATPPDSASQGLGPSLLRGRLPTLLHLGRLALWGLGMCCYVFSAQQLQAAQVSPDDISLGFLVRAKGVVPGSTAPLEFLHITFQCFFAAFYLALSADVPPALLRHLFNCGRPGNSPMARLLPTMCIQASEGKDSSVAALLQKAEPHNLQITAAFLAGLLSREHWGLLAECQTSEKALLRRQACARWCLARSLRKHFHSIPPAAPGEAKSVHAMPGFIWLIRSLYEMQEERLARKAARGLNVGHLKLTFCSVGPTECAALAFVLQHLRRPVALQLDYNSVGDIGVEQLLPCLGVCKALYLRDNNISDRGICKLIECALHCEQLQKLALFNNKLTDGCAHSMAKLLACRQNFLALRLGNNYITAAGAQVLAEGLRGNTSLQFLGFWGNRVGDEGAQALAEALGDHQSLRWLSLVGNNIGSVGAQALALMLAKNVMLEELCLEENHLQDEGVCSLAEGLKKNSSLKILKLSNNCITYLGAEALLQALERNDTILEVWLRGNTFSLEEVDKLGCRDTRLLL
Sequence of Beta Lactamase (Q932Y6 whole entry): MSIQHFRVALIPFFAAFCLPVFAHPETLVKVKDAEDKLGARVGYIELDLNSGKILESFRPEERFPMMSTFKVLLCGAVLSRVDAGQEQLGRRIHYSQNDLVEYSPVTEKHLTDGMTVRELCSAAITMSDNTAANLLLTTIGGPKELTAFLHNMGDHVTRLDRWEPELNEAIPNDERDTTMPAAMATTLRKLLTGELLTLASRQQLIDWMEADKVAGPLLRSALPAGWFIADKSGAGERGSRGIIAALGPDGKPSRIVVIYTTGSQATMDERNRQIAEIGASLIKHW
Sequence of Cytochrome P450 2D6 (P10635 whole entry): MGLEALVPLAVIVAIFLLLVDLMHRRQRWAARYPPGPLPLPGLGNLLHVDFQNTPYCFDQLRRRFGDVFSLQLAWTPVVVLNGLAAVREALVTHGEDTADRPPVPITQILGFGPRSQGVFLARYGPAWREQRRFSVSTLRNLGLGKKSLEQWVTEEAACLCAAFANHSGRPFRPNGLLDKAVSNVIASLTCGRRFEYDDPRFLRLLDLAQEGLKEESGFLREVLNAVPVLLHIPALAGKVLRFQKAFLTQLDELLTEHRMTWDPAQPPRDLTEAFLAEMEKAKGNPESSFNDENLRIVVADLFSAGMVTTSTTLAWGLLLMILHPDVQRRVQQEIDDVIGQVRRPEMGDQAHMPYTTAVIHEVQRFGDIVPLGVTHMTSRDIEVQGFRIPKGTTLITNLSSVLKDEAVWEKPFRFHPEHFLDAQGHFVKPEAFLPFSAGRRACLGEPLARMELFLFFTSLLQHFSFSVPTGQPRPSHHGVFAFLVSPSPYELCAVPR
Sequence of Glucose-6-phosphate 1-dehydrogenase (P11413 whole entry): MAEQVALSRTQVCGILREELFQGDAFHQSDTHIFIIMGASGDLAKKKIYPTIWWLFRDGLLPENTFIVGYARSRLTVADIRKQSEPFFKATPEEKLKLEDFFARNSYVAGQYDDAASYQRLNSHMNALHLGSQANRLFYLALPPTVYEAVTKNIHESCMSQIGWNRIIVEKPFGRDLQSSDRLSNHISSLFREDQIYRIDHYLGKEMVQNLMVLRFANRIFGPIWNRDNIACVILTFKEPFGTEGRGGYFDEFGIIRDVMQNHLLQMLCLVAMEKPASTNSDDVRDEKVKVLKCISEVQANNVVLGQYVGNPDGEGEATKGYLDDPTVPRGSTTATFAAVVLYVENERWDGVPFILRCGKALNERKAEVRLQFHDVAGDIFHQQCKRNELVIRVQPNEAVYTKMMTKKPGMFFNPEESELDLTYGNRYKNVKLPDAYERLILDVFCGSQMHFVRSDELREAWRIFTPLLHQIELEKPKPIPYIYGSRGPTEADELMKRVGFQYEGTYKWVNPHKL

CN(CCO)c1cc(Sc2nc3ccccc3s2)c2nonc2c1[N+](=O)[O-]
active: AC50 [1] 1.55 µM | IC50 (Fatty acid synthase [2]) 2.32 µM | EC50 (Protein RecA) 0.49 µM | CC50 [3] > 40 µM | IC50 (Beta Lactamase) 8.89 µM | EC50 (BJ [4]) 1.96 µM | IC50 [6] 18.8 µM | AC50 [7] 1.26 µM | EC50 (BJ [8]) 4.12 µM | IC50 [9] 28.1 µM | AC50 [10] 29.3 µM | IC50 [11] 2.08 µM | AC50 [12] 8.18 µM | EC50 [13] 5.92 µM | AC50 [14] 1.62 µM | IC50 (Fatty acid synthase [16]) 2.14 µM | IC50 (CHO) 1.69 µM
inconclusive: AC50 (Cytochrome P450 3A4) 22.4 µM | AC50 (Cytochrome P450 2D6) 22.4 µM | EC50 (BJ [15]) 4.95 µM
inactive: EC50 (Beta-galactosidase) > 40 µM | IC50 [5] > 80 µM

CN(C)S(=O)(=O)c1cccc(NC(S)=Nc2cccc3cnccc23)c1
inactive: IC50 (HEK293 [22]) > 20 µM
active: IC50 (HEK293 [17]) 3.39 µM | AC50 [18] 3.86 µM | IC50 (HEK293 [19]) 13.4 µM | EC50 (HEK293 [20]) 10.6 µM | EC50 [21] 9.33 µM | IC50 (HEK293 [23]) 4.64 µM

COc1ccc(/C=c2\s/c(=C\C(=O)C(C)(C)C)[nH]c2=O)cc1O
active: EC50 [24] 41.8 µM | AC50 [18] 4.65 µM
